Laboratory results taken from patent US10441562B2, “Aromatic farnesyl compound and application thereof” (INSTITUTE OF MICROBIOLOGY, CHINESE ACADEMY OF SCIENCES, priority 2015, dated 2019).

Columns and labels:
[1] = target: aldose reductase (Homo sapiens, UniProt P15121); test: aldose reductase inhibitory activity test in vitro; format: biochemical
Outline: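 Absorbance assay with 0.1 mM NADPH solution and enzyme preincubated with compound 10 min at room temperature, then 10 mM D,L-glyceraldehyde solution added as substrate. Incubation 30 min at 37 °C in PBS. Read-out is optical density at 340 nm, corrected with blank (no compound) and background (no substrate) wells.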

[2] = body weight of hyperglycemia KK-A^y mice; format: in vivo
Description: Materials: accurately weigh the 2 compounds S13 and S28 discussed in example 2, and then add 0.5% CMC-Na to make the solution of 5 mg/ml used for activity test. KK-A^y mice are purchased from Chinese Academy of Medical Sciences & Peking Union Medical College Institute of Animal Studies. Experiments are carried out after adapting to the environment (T=20-24° C., constant humidity: 50-60%, 12 hours light exposure (8:00-20:00), soundproof, free feeding and drinking) for 1 week. Glucometer is purchased from Roche.
Methods: 10 male C57 mice of 6-8 weeks of 20-22 g are used as normal control group (1). Detect the fasting glucose of male KK-A^y mice, which are 6-8 weeks with the weight of 28-32 g, and divide them into different groups according to the blood sugar level and body weight: (2) model control group, (3) which is administered by compound S13 with the dose of 1 mg/kg, (4) which is administered by compound S13 with the dose of 5 mg/kg, (5) which is administered by compound S13 with the dose of 10 mg/kg, (6) which is administered by compound S13 with the dose of 20 mg/kg, (7) which is administered by compound S28 with the dose of 1 mg/kg, (8) which is administered by compound S28 with the dose of 5 mg/kg, (9) which is administered by compound S28 with the dose of 10 mg/kg, (10) which is administered by compound S28 with the dose of 20 mg/kg, (11) which is administered by metformin with the dose of 8 g/kg, (12) which is administered by compound S13 with the dose of 2.5 mg/kg and metformin with the dose of 4 g/kg, (13) which is administered by compound S13 with the dose of 5 mg/kg and metformin with the dose of 4 g/kg, (14) which is administered by compound S28 with the dose of 2.5 mg/kg and metformin with the dose of […], (15) which is administered by compound S28 with the dose of 5 mg/kg and metformin with the dose of […]. Each group has 8 mice, and is administrated successively for 3 weeks. Model control group is given with equal amounts of 0.5% CMC-Na.
2) Effects on body weight and blood sugar: the body weight of mice are recorded at the 2th, 5th, 8th, 11th, 14th, 17th, 20th day after administration, and blood is collected from tip of tail to detect the blood sugar level (see table 10).

[3] = tested on: Wister rats fed with choline deficient diet; test: hepatic tissue section of non-alcohol fatty liver rats (HE); format: in vivo; settings: FIG. 2, 10 and 20 mg/kg
Description: Methods: male SPF level Wister rats are randomly divided into groups: (1) normal group (2) model control group (3) which is administered by compound S13 with the dose of 10 mg/kg (4) which is administered by compound S13 with the dose of 20 mg/kg (5) which is administered by compound S28 with the dose of 10 mg/kg […] which is administered by compound S28 with the dose of 20 mg/kg. Each group has 10 mice. The mice of normal group are fed with standard diet, the mice of other groups are fed with choline deficient diet (high-fat diet). Food intake and body weight are detected. Feeding with choline deficient diet are considered as a frequently-used hepatic adipose infiltration modeling method of rodent, which can induce the denaturation of hepatocyte, hepatitis and liver injury, at the same time the increase of blood lipid level can induce the insulin resistance.
After being fed with high-fat diet for 8 weeks, the mice of treated group are given drugs for 4 weeks successively. Model group and normal group are given with equal amounts of 0.5% CMC-Na. After administration of medicine for 4 weeks, the rats are executed under anesthesia, and then hepatic tissue and blood are collected.
4) Hepatic tissue section: after the last administration, the rats are executed under anesthesia. Collect the liver on the ice, then quickly fix the liver into formalin and prepare the tissue sections.

[4] = acute toxicity test of mice; settings: Kunming, mouse, in vivo, po, 5 g/kg
Description: (§1) Materials: 20 Kunming species mice of 6-8 weeks of 20-22 g are purchased from Beijing Vital River Laboratory Animal Technology Co., Ltd.,
(§2) Accurately weigh the 2 compounds S13 and S28, and then add 0.5% CMC-Na to make the solution of 0.2 g/ml.
(§3) After being acclimatized for 3-5 days, the mice are fasted at 18:00 in the day before the experiment, free drinking. The mice are randomly divided into groups of 10 animals in each and given with medicine by intragastric administration, and 0.25 ml of drugs is given to every 10 g weight of mice, i.e. dose 5 g/kg. Mice of control group are given with 0.5% CMC-Na by intragastric administration, and 0.25 ml of solution are given to every 10 g weight of mice.
(§4) After administration, observe the general status of mice, such as appearance, behavior, response to stimulus, secretion and excretion, and record the time when abnormal phenomena happen. If death occurred, record time and observe the abnormal phenomena by autopsy.

[5] = tested on: Kunming species mice; test: acute toxicity test of mice
Description: as §1, §2, §3, §4

[6] = 2st day, 20 mg/kg, groups 6, 10
[7] = 5st day, 20 mg/kg, groups 6, 10
[8] = 8st day, 20 mg/kg, groups 6, 10
[9] = 11st day, 10 mg/kg, groups 5, 9
[10] = 11st day, 20 mg/kg, groups 6, 10
[11] = 14st day, 10 mg/kg, groups 5, 9
[12] = 14st day, 20 mg/kg, groups 6, 10
[13] = 17st day, 10 mg/kg, groups 5, 9
[14] = 17st day, 20 mg/kg, groups 6, 10
[15] = 20st day, 10 mg/kg, groups 5, 9
[16] = 20st day, 20 mg/kg, groups 6, 10

In the case of `CC(C)=CCC/C(C)=C/CCC1=C[C@H](c2cc(O)ccc2O)OC1=O` [S13, (R,E)-5-(2,5-dihydroxyphenyl)-3-(4,8-dimethylnona-3,7-dien-1-yl)furan-2(5H)-one], the IC50 [1] is reported as 1.8 µM, the “effect on body weight (in words)” value [2] is reported as “litter effect on body weight” and the Body weight ([2]; 2st day, 1 mg/kg, groups 3, 7) is reported as 30.6 g. It also gave a Body weight ([2]; 2st day, 5 mg/kg, groups 4, 8) of 30.7 g, a Body weight ([2]; 2st day, 10 mg/kg, groups 5, 9) of 30.3 g and a Body weight [2, 6] of 30.5 g. For the same compound, the Body weight ([2]; 5st day, 1 mg/kg, groups 3, 7) was 30.8 g, the Body weight ([2]; 5st day, 5 mg/kg, groups 4, 8) was 30.8 g and the Body weight ([2]; 5st day, 10 mg/kg, groups 5, 9) was 30.2 g. The Body weight [2, 7] was 30.3 g, the Body weight ([2]; 8st day, 1 mg/kg, groups 3, 7) was 30.5 g and the Body weight ([2]; 8st day, 5 mg/kg, groups 4, 8) was 30.9 g. It also gave a Body weight ([2]; 8st day, 10 mg/kg, groups 5, 9) of 30.3 g, a Body weight [2, 8] of 30.2 g and a Body weight ([2]; 11st day, 1 mg/kg, groups 3, 7) of 30.5 g. The Body weight ([2]; 11st day, 5 mg/kg, groups 4, 8) was 31.2 g, the Body weight [2, 9] was 31.5 g and the Body weight [2, 10] was 30.1 g. For the same compound, the Body weight ([2]; 14st day, 1 mg/kg, groups 3, 7) was 31.2 g, the Body weight ([2]; 14st day, 5 mg/kg, groups 4, 8) was 31.5 g and the Body weight [2, 11] was 32.5 g. For the same compound, the Body weight [2, 12] was 30.4 g, the Body weight ([2]; 17st day, 1 mg/kg, groups 3, 7) was 31.8 g and the Body weight ([2]; 17st day, 5 mg/kg, groups 4, 8) was 31.5 g. The Body weight [2, 13] was 32.1 g, the Body weight [2, 14] was 30 g and the Body weight ([2]; 20st day, 1 mg/kg, groups 3, 7) was 32.1 g. The Body weight ([2]; 20st day, 5 mg/kg, groups 4, 8) was 31.6 g, the Body weight [2, 15] was 32.5 g and the Body weight [2, 16] was 30.1 g. The “fat vacuole in hepatocyte (liver tissue section, HE)” value [3] was “almost disappear”, the LD50 [4] was greater than 5000 mg/kg and the “abnormal phenomena by autopsy” value ([5]; mice, intragastric administration, dose 5 g/kg) was “no obvious abnormal phenomena are found by autopsy”.
For `CC(C)=CCC/C(C)=C/CCC1=C[C@@H](c2cc(O)ccc2O)OC1=O` [S28, (S,E)-5-(2,5-dihydroxyphenyl)-3-(4,8-dimethylnona-3,7-dien-1-yl)furan-2(5H)-one], the IC50 [1] was 1.6 µM, the “effect on body weight (in words)” value [2] was “litter effect on body weight” and the Body weight ([2]; 2st day, 1 mg/kg, groups 3, 7) was 30.1 g. It also gave a Body weight ([2]; 2st day, 5 mg/kg, groups 4, 8) of 30.3 g, a Body weight ([2]; 2st day, 10 mg/kg, groups 5, 9) of 30.3 g and a Body weight [2, 6] of 30.4 g. For the same compound, the Body weight ([2]; 5st day, 1 mg/kg, groups 3, 7) was 30.23 g, the Body weight ([2]; 5st day, 5 mg/kg, groups 4, 8) was 30.43 g and the Body weight ([2]; 5st day, 10 mg/kg, groups 5, 9) was 30.51 g. The Body weight [2, 7] was 30.36 g, the Body weight ([2]; 8st day, 1 mg/kg, groups 3, 7) was 30.6 g and the Body weight ([2]; 8st day, 5 mg/kg, groups 4, 8) was 30.8 g. The Body weight ([2]; 8st day, 10 mg/kg, groups 5, 9) was 30.4 g, the Body weight [2, 8] was 30.2 g and the Body weight ([2]; 11st day, 1 mg/kg, groups 3, 7) was 30.8 g. It also gave a Body weight ([2]; 11st day, 5 mg/kg, groups 4, 8) of 31.3 g, a Body weight [2, 9] of 31.4 g and a Body weight [2, 10] of 30.5 g. The Body weight ([2]; 14st day, 1 mg/kg, groups 3, 7) was 31.25 g, the Body weight ([2]; 14st day, 5 mg/kg, groups 4, 8) was 31.76 g and the Body weight [2, 11] was 32.56 g. For the same compound, the Body weight [2, 12] was 30.4 g, the Body weight ([2]; 17st day, 1 mg/kg, groups 3, 7) was 31.4 g and the Body weight ([2]; 17st day, 5 mg/kg, groups 4, 8) was 31.5 g. The Body weight [2, 13] was 32.6 g, the Body weight [2, 14] was 30.7 g and the Body weight ([2]; 20st day, 1 mg/kg, groups 3, 7) was 32.1 g. For the same compound, the Body weight ([2]; 20st day, 5 mg/kg, groups 4, 8) was 31.3 g, the Body weight [2, 15] was 32.2 g and the Body weight [2, 16] was 30.2 g. For the same compound, the “fat vacuole in hepatocyte (liver tissue section, HE)” value [3] was “almost disappear”, the LD50 [4] was greater than 5000 mg/kg and the “abnormal phenomena by autopsy” value ([5]; mouse, in vivo) was “no obvious abnormal phenomena are found by autopsy”. The “body weight of mice after administration” value ([5]; mouse, in vivo) was “drop slightly”.
